Series [1] concerns STAT5 Y694 phosphorylation. As to the kind of experiment: HTRF experiment: STAT5 Y694 phosphorylation in Hela cells. Type of series: cell-based, Human. Conditions: for Inhibition rate @10 μM: 10 μM compound, 2 h pretreatment, interferon stimulation 30 min. How it is done:
A multifunctional microplate reader (TECAN; […] F PLEX); 96-well cell culture plates (Bioyong), HTRF 384-well low volume plates (Cisbio; Cat #66PL384025); Human interferon 0 (IFN-0) (GenScript; Cat #P01574), STAT5 phospho-Y694 kits (Cisbio; Cat #64AT5PEG).
Hela cells (American Type Culture Collection (ATCC), CCL-2) were cultured in a 96-well plate with DMEM containing 5% fetal bovine serum at a density of 3×10^4 cells/well. The cells were incubated overnight in a 37° C., 5% carbon dioxide humidified incubator. The next day, the original DMEM in the 96-well plate was blotted, and equal volumes of medium containing different concentrations of compounds (stock solutions of compounds prepared with dimethyl sulfoxide were diluted to desired concentrations in medium) were added for 2 h of pretreatment. The plate was left to stand in a 37° C. incubator. Human interferon 0 was then added to a final concentration of 10 nM for stimulation. The plate was gently shaken so the contents were well mixed, and the plate was then left to stand in a 37° C. incubator for 30 min.
The medium was removed, and the plate was washed once with an appropriate volume of PBS and then blotted dry. Then 1×lysis buffer was added at 40 μL/well, and the plate was left to stand at room temperature for 30 min (preparation of 1 mL of 1× lysis buffer: mixing well 740 μL of ddH2O with 250 μL of 4× lysis buffer and […]). After 30 min, the cells were repeatedly pipetted until the lysis buffer was not viscous (bubbles were avoided) so that sufficient lysis was achieved.
In an HTRF 384-well low volume plate, 4 μL of an antibody premix (containing two antibodies: Cryptate and d2: the two antibodies were each 20-fold diluted with detection buffer and were then mixed in equal volume to form the antibody premix) and 16 μL of the cell lysate were added to each well. The plate was sealed with a sealing membrane and then incubated overnight at room temperature in a dark place.
After the overnight incubation, signals at 665 nm and 620 nm were detected separately on a multifunctional microplate reader. The calculation formula for the STAT5 Y694 phosphorylation assay is: Ratio=[(signal 665 nm)/(signal 620 nm)]×10^4. A dimethyl sulfoxide-only treatment group was set as a negative control (RatioNegative), and an interferon 0 stimulation group without compound addition was set as a positive control (RatioPositive). The inhibition rates of different samples against STAT5 Y694 phosphorylation were normalized: inhibition rate=[1−(RatioExperiment−RatioNegative)/(RatioPositive−RatioNegative)]×100.

Series [2] concerns female BALB/c mice. As to the kind of experiment: Toxicity, multiple administrations for 14 days in mice. Type of series: in vivo. Set-up: Changes in body weight of the mice in the toxicity test (group mean) / Changes in body weight of the mice in the toxicity test: unit not given here. As for the experimental part: • Part I: Single administration. A total of 6 mice were used. They were randomly divided into 2 groups: the vehicle control and GEN1-284s (1000 mg/kg), dosed once by oral gavage and observed for 6 days, and changes in body weight and activities were recorded. • Part II: Multiple administrations. This experiment used a total of 6 mice. They were divided into two groups of 3: a GEN1-284s-1000 mg/kg group and a GEN1-284s-300 mg/kg group, and were intragastrically given GEN1-284s for 14 consecutive days at 200 μL each. The state and survival of the mice were observed every day, and their body weights were recorded. Two mice died 2 h after GEN1-284s-1000 mg/kg administration. The dose was changed to 600 mg/kg, and the experiment was continued.
This experiment used a total of 6 mice. They were divided into two groups of 3: a GEN1-284s-1000 mg/kg group and a GEN1-284s-300 mg/kg group, and were intragastrically given GEN1-284s for 14 consecutive days at 200 μL each. The state and survival of the mice were observed every day, and their body weights were recorded. Two mice died 2 h after GEN1-284s-1000 mg/kg administration. The dose was changed to 600 mg/kg, and the experiment was continued.
Each mouse was intragastrically administered GEN1-284s for 14 consecutive days in a volume of 200 μL/20 g. The state and survival of the mice were observed every day, and their body weights were recorded. Two mice died 2 h after GEN1-284s-1000 mg/kg administration. The dose was changed to 600 mg/kg, and the experiment was continued.
Changes in body weight and survival of the mice were observed during 6 days after the single administration, and changes in body weight and the survival of the mice were observed during 14 consecutive days of high-dose GEN1-284s administration.

In general, IC50 refers to the point on the concentration scale where inhibition reaches its midpoint.

`O=C(Cc1ccc2nccnc2c1)N1CCC(n2c(=O)[nH]c3cccc(C(F)(F)F)c32)CC1` [GEN1-140, 1-(1-(2-(Quinoxalin-6-yl)acetyl)piperidin-4-yl)-7-(trifluoromethyl)-1,3-dihydro-2H-benzo[d]imidazol-2-one]: in series [1], the “Inhibition rate @10 μM” value came to 53.79%.

In the case of `CN(C)c1ccc(CC(=O)N2CCC(n3c(=O)[nH]c4cccc(C(F)(F)F)c43)CC2)cc1` [GEN1-118, 1-(1-(2-(4-(Dimethylamino)phenyl)acetyl)piperidin-4-yl)-7-(trifluoromethyl)-1,3-dihydro-2H-benzo[d]imidazol-2-one], the “Inhibition rate @10 μM” value in series [1] is 27.57%.

Consider `O=C(Cc1ccc2ncccc2c1)N1CCC(n2c(=O)n(COP(=O)(O)O)c3cccc(C(F)(F)F)c32)CC1` [GEN1-284, (2-Oxo-3-(1-(2-(quinolin-6-yl)acetyl)piperidin-4-yl)-4-(trifluoromethyl)-2,3-dihydro-1H-benzo[d]imidazol-1-yl)methyl dihydrogen phosphate], for which, in series [1], the IC50 is 3.9 µM and the “Inhibition rate @10 μM” value was 80.21%.

On to `O=C(Cc1ccc2ncccc2c1Cl)N1CCC(n2c(=O)[nH]c3cccc(C(F)(F)F)c32)CC1` [GEN1-306, 1-(1-(2-(5-Chloroquinolin-6-yl)acetyl)piperidin-4-yl)-7-(trifluoromethyl)-1,3-dihydro-2H-benzo[d]imidazol-2-one], for which the “Inhibition rate @10 μM” value in series [1] stood at 95.64%.

In the case of `Cc1ccc2cc(CC(=O)N3CCC(n4c(=O)[nH]c5cccc(C(F)(F)F)c54)CC3)ccc2n1` [GEN1-300], in series [1], the IC50 worked out at 7.6 µM and the “Inhibition rate @10 μM” value stood at 72.83%.

Regarding `O=C(Cc1ccc2nccc(Cl)c2c1)N1CCC(n2c(=O)[nH]c3cccc(C(F)(F)F)c32)CC1` [GEN1-301, 1-(1-(2-(4-Chloroquinolin-6-yl)acetyl)piperidin-4-yl)-7-(trifluoromethyl)-1,3-dihydro-2H-benzo[d]imidazol-2-one], in series [1], 8.8 µM corresponded to half-maximal inhibition (IC50) and the “Inhibition rate @10 μM” value amounted to 80.70%.

On to `O=C(Cc1ccc2nc(Cl)ccc2c1)N1CCC(n2c(=O)[nH]c3cccc(C(F)(F)F)c32)CC1` [GEN1-302, 1-(1-(2-(2-Chloroquinolin-6-yl)acetyl)piperidin-4-yl)-7-(trifluoromethyl)-1,3-dihydro-2H-benzo[d]imidazol-2-one], for which, in series [1], half-maximal inhibition (IC50) was put at 7 µM and the “Inhibition rate @10 μM” value was 80.37%.

`O=C(Cc1ccc2ncccc2c1)N1CCC(n2c(=O)n(COP(=O)([O-])[O-])c3cccc(C(F)(F)F)c32)CC1.[Na+].[Na+]` [Compound 284s]: the “Changes in body weight of the mice in the toxicity test (group mean)” value (from here on “Changes in body weight … (group mean)”) in series [2] (300 mg/kg P.O daily, Day 1) was determined as 16.97; in series [2] (300 mg/kg P.O daily, Day 2), 16.93; in series [2] (300 mg/kg P.O daily, Day 3) it was 16.87; in series [2] (300 mg/kg P.O daily, Day 4), 17.17; in series [2] (300 mg/kg P.O daily, Day 5), 17.17; in series [2] (300 mg/kg P.O daily, Day 6), 17.23. The “Changes in body weight … (group mean)” value is 17.47 in series [2] (300 mg/kg P.O daily, Day 8); 17.17 in series [2] (300 mg/kg P.O daily, Day 9); 17.1 in series [2] (300 mg/kg P.O daily, Day 10); 17.3 in series [2] (300 mg/kg P.O daily, Day 11); 17.23 in series [2] (300 mg/kg P.O daily, Day 12); 17.47 in series [2] (300 mg/kg P.O daily, Day 13). Moreover, the “Changes in body weight … (group mean)” value is 17.47 in series [2] (300 mg/kg P.O daily, Day 14) and 17.37 in series [2] (600 mg/kg group (1000 mg/kg, changed to 600 mg/kg on day 2) P.O daily, Day 1). Also, the “Changes in body weight of the mice in the toxicity test” value in series [2] (600 mg/kg group (1000 mg/kg, changed to 600 mg/kg on day 2) P.O daily, Day 2) is on record as 16.9; in series [2] (600 mg/kg group (1000 mg/kg, changed to 600 mg/kg on day 2) P.O daily, Day 3), 17.3; in series [2] (600 mg/kg group (1000 mg/kg, changed to 600 mg/kg on day 2) P.O daily, Day 4), 17.3.

Regarding `Cc1cc(CC(=O)N2CCC(n3c(=O)[nH]c4cccc(C(F)(F)F)c43)CC2)cc2cccnc12` [GEN1-303, 1-(1-(2-(8-Methylquinolin-6-yl)acetyl)piperidin-4-yl)-7-(trifluoromethyl)-1,3-dihydro-2H-benzo[d]imidazol-2-one], in series [1], the midpoint of inhibition, the IC50, lay at 5.5 µM and the “Inhibition rate @10 μM” value is reported as 91.91%.

Take `O=C(Cc1ccc2[nH]ccc2c1)N1CCC(n2c(=O)[nH]c3ccccc32)CC1` [GEN1-077, 3-[1-[2-(1H-Indol-5-yl)acetyl]-4-piperidinyl]-1H-benzimidazol-2-one]: the “Inhibition rate @10 μM” value in series [1] came out at 34.25%.

With `COc1ccc2cc(CC(=O)N3CCC(n4c(=O)[nH]c5cccc(C(F)(F)F)c54)CC3)ccc2n1` [GEN1-305], in series [1], the “Inhibition rate @10 μM” value was found to be 63.05%.

Take `O=C(Cc1ccc2ncc(C(F)(F)F)cc2c1)N1CCC(n2c(=O)[nH]c3cccc(C(F)(F)F)c32)CC1` [GEN1-312]: the “Inhibition rate @10 μM” value in series [1] is 55.50%.

For the compound `N#Cc1ccnc2ccc(CC(=O)N3CCC(n4c(=O)[nH]c5cccc(C(F)(F)F)c54)CC3)cc12` [GEN1-304, 6-(2-Oxo-2-(4-(2-oxo-7-(trifluoromethyl)-2,3-dihydro-1H-benzo[d]imidazol-1-yl)piperidin-1-yl)ethyl)quinoline-4-carbonitrile], in series [1], the “Inhibition rate @10 μM” value is 40.76%.

In the case of `O=C(Cc1ccc2sccc2c1)N1CCC(n2c(=O)[nH]c3cccc(C(F)(F)F)c32)CC1` [GEN1-298, 1-(1-(2-(Benzo[b]thiophen-5-yl)acetyl)piperidin-4-yl)-7-(trifluoromethyl)-1,3-dihydro-2H-benzo[d]imidazol-2-one], in series [1], the “Inhibition rate @10 μM” value is reported as 51.98%.

As for `O=C(Cc1c[nH]c2ccccc12)N1CCC(n2c(=O)[nH]c3cccc(C(F)(F)F)c32)CC1` [GEN1-169, reference compound], the “Inhibition rate @10 μM” value in series [1] came out at 13.47%.

The record behind these values is patent US20240391940A1, “FUSED RING-CONTAINING COMPOUND, APPLICATION THEREOF, AND COMPOSITION CONTAINING SAME” (GenEros Biopharma Ltd., priority 2020, published 2024).
